{"source": "paper PMC3117731", "about": "“A systems biology approach to dynamic modeling and inter-subject variability of statin pharmacokinetics in human hepatocytes” (BMC Systems Biology, 2011)", "key": {"PON enzymes": {"tested_on": "PON enzymes", "test": "PON mediated lactone hydrolysis, rate constants estimated in the optimization procedure", "type": "in vitro ADME, human", "conditions": "nominal value from optimization", "description": "The lactone metabolites are either hydrolyzed chemically to the respective acid metabolites inside (c) or outside (m) the cell, or enzymatically by the contribution of PON enzymes inside the cell. Both reactions are described as first order kinetics(4) [drawing 6]\nTherefore, maximal rate constants r max of CYP3A4 hydroxylation and UGT1A3 lactonization were predicted for individual 2 and 3 via the relative abundance approach (equation (11)) using the r max -parameters of individual 1 (Table 3) and the protein concentrations observed on the primary human hepatocytes (Table 4). These parameters were then fixed in the optimization. Further, the rate constants k of PON mediated lactone hydrolysis of individual 2 and 3 were estimated in the optimization procedure."}, "[1]": {"tested_on": "primary human hepatocytes", "test": "Apparent (lumped active transport and passive diffusion) import and export in primary human hepatocytes", "type": "in vitro ADME", "description": "Thus, in the following, mechanisms of active transport and passive diffusion are lumped, resulting in the apparent transport rate for import,(12) [drawing 22]\nand in the apparent transport rate for export(13) [drawing 23]\ndescribed by the product of apparent rate constant κ im/ex of import or export and extra- or intracellular concentration [drawing 24] , respectively (Figure 3). Consequently, the rate constants κ of import and export are set individually, and were to be estimated in the optimization procedure."}, "[2]": {"set-up": "method as in PMID 8272408", "conditions": "estimated from experimental observations; assumed to be same for ASLpOH and ASLoOH; cited from earlier work"}, "CYP3A4": {"molecular_target": "CYP3A4 (Homo sapiens, UniProt P08684)", "sequence (P08684 2-503 limits assumed)": "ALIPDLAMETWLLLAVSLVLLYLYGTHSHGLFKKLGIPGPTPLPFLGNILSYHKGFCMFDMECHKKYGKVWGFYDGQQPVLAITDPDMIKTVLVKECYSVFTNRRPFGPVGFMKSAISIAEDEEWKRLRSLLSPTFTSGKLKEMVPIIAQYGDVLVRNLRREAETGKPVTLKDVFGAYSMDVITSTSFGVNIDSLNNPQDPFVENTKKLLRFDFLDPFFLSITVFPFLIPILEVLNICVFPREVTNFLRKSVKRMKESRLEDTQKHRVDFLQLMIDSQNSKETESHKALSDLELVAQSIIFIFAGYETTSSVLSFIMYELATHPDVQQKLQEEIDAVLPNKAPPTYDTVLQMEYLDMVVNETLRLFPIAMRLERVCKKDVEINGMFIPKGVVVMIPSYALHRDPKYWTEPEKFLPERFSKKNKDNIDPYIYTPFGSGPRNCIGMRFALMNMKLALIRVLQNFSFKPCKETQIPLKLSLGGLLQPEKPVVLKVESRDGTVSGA"}, "[3]": {"tested_on": "primary human hepatocytes", "test": "Time-series experiment of atorvastatin biotransformation in primary human hepatocytes (extra- and intracellular metabolites by LC-MS-MS, model fit)", "type": "in vitro ADME", "conditions": "individual 1; 10 μM AS", "procedure": "Hepatocytes were cultured on collagen gel precoated 6-well plates at a density of 1.5·10^6 cells/well. Cells were allowed to attach to the collagen layer. After transport, culture media was disposed and attached cells were cultured 24 h at 37°C in a humidified chamber with 95%/5% air/CO2 in serum-free medium WME, supplemented with albumin (0.1% (v/v)), penicillin/streptomycin (100 U/ml), stabilized L-glutamine (2 mM), dexamethasone dihydrogenphosphate (0.025% (v/v)) and ITS-X (5 mg insulin, 3.35 μg natrium-selenit, 2.75 mg transferrin and 1 mg ethanolamine), further named SFM.\nAt specified time-points, three wells were further treated for the preparation of samples for the measurement of extracellular and intracellular metabolites, respectively. SFM media was collected and 50 μL formic acid and deuterated internal standard was added for the further measurement of extracellular metabolites. Cells were harvested in pre-cooled albumin-free SFM, disrupted by freeze/thaw and ultra-sonification and centrifuged. The supernatant was used for the determination of intracellular metabolites.\nMS-MS analysis was performed on an Esquire HCT ultra ion trap mass spectrometer (Bruker Daltonics, Bremen, Germany) coupled to an HPLC 1100-System (Agilent, Waldbronn, Germany) consisting of binary pump G1312A, degasser G1379A, well-plate sampler G1367A and column thermostat G1330B. […] The following parameters were applied: nebulizer 45 psi, dry gas 10 l/min, dry temperature 300°C, capillary 4100 V, scan range 200 - 600 m/z."}, "[4]": {"conditions": "Individual 1, nominal value from optimization"}, "[5]": {"conditions": "Individual 2, nominal value from optimization"}, "[6]": {"conditions": "Individual 3, nominal value from optimization"}, "[7]": {"conditions": "Individual 1, nominal value from optimization, per ml intracellular volume"}, "[8]": {"conditions": "Individual 2, predicted via relative abundance approach from individual 1 and CYP3A4 protein concentration"}}, "note": "Several values for one entry are separate records, joined by “and”; a condition that tells them apart may be missing. Equal entries are not always repeated. Where two headings read alike, the source gives them in different places."}
{"compound": "CC(C)c1c(C(=O)Nc2ccccc2)c(-c2ccccc2)c(-c2ccc(F)cc2)n1CC[C@@H]1C[C@@H](O)CC(=O)O1", "note": "[ASL, atorvastatin lactone]", "values": [{"measurement": "κPON (rate constant of PON mediated lactone hydrolysis)", "setting": "PON enzymes; Individual 1", "value": "308 10^-3 min^-1"}, {"measurement": "κPON (rate constant of PON mediated lactone hydrolysis)", "setting": "PON enzymes; Individual 2", "value": "99.2 10^-3 min^-1"}, {"measurement": "κPON (rate constant of PON mediated lactone hydrolysis)", "setting": "PON enzymes; Individual 3", "value": "0.00 10^-3 min^-1"}, {"measurement": "κex (apparent rate constant of export)", "setting": "[1]; [4]", "value": 21.8, "unit": "µL/min"}, {"measurement": "κim (apparent rate constant of import)", "setting": "[1]; [4]", "value": 275, "unit": "µL/min"}, {"measurement": "κex (apparent rate constant of export)", "setting": "[1]; [5]", "value": 2.48, "unit": "µL/min"}, {"measurement": "κim (apparent rate constant of import)", "setting": "[1]; [5]", "value": 25.8, "unit": "µL/min"}, {"measurement": "κex (apparent rate constant of export)", "setting": "[1]; [6]", "value": 10.5, "unit": "µL/min"}, {"measurement": "κim (apparent rate constant of import)", "setting": "[1]; [6]", "value": 82.7, "unit": "µL/min"}, {"measurement": "kCR (rate constant of spontaneous hydrolysis of the lactone)", "setting": "[2]", "value": 0.0025, "unit": "min⁻¹"}]}
{"compound": "CC(C)c1c(C(=O)Nc2ccccc2O)c(-c2ccccc2)c(-c2ccc(F)cc2)n1CC[C@@H]1C[C@@H](O)CC(=O)O1", "note": "[ASLoOH, ortho-hydroxy-atorvastatin lactone]", "values": [{"measurement": "κex (apparent rate constant of export)", "setting": "[1]; [4]", "value": 2.67, "unit": "µL/min"}, {"measurement": "κim (apparent rate constant of import)", "setting": "[1]; [4]", "value": 26.1, "unit": "µL/min"}, {"measurement": "κex (apparent rate constant of export)", "setting": "[1]; [5]", "value": 86.3, "unit": "µL/min"}, {"measurement": "κim (apparent rate constant of import)", "setting": "[1]; [5]", "value": 530, "unit": "µL/min"}, {"measurement": "κex (apparent rate constant of export)", "setting": "[1]; [6]", "value": 0.77, "unit": "µL/min"}, {"measurement": "κim (apparent rate constant of import)", "setting": "[1]; [6]", "value": 2.43, "unit": "µL/min"}, {"measurement": "rmax,3A4 (maximal rate of CYP3A4 hydroxylation to the labelled metabolite)", "setting": "CYP3A4; [7]", "value": 2756, "unit": "pmol/min/mL"}, {"measurement": "rmax,3A4 (maximal rate of CYP3A4 hydroxylation to the labelled metabolite)", "setting": "CYP3A4; [8]", "value": 1640, "unit": "pmol/min/mL"}]}
{"compound": "CC(C)c1c(C(=O)Nc2ccc(O)cc2)c(-c2ccccc2)c(-c2ccc(F)cc2)n1CC[C@@H]1C[C@@H](O)CC(=O)O1", "note": "[ASLpOH, para-hydroxy-atorvastatin lactone]", "values": [{"measurement": "ratio of intracellular AUC 0-600 min to extracellular AUC 0-600 min", "setting": "[3]", "value": 38.2}, {"measurement": "ratio of intracellular c max to extracellular c max", "setting": "[3]", "value": 34.5}, {"measurement": "κex (apparent rate constant of export)", "setting": "[1]; [4]", "value": "1.13 µL/min and 33.7 µL/min"}, {"measurement": "κex (apparent rate constant of export)", "setting": "[1]; [5]", "value": "1.01 µL/min and 7.24 µL/min"}, {"measurement": "κex (apparent rate constant of export)", "setting": "[1]; [6]", "value": "0.59 µL/min and 8.59 µL/min"}, {"measurement": "rmax,3A4 (maximal rate of CYP3A4 hydroxylation to the labelled metabolite)", "setting": "CYP3A4; [7]", "value": 1228, "unit": "pmol/min/mL"}, {"measurement": "rmax,3A4 (maximal rate of CYP3A4 hydroxylation to the labelled metabolite)", "setting": "CYP3A4; [8]", "value": 731, "unit": "pmol/min/mL"}]}
{"compound": "CC(C)c1c(C(=O)Nc2ccccc2O)c(-c2ccccc2)c(-c2ccc(F)cc2)n1CCC(O)CC(O)CC(=O)O", "note": "(stereo not shown) [ASoOH, ortho-hydroxy-atorvastatin acid]", "values": [{"measurement": "ratio of intracellular AUC 0-600 min to extracellular AUC 0-600 min", "setting": "[3]", "value": 4.5}, {"measurement": "ratio of intracellular c max to extracellular c max", "setting": "[3]", "value": 2.5}, {"measurement": "κex (apparent rate constant of export)", "setting": "[1]; [4]", "value": 1.60, "unit": "µL/min"}, {"measurement": "κim (apparent rate constant of import)", "setting": "[1]; [4]", "value": 0.39, "unit": "µL/min"}, {"measurement": "κex (apparent rate constant of export)", "setting": "[1]; [5]", "value": 3.62, "unit": "µL/min"}, {"measurement": "κim (apparent rate constant of import)", "setting": "[1]; [5]", "value": 0.22, "unit": "µL/min"}, {"measurement": "κex (apparent rate constant of export)", "setting": "[1]; [6]", "value": 0.91, "unit": "µL/min"}, {"measurement": "κim (apparent rate constant of import)", "setting": "[1]; [6]", "value": 0.00, "unit": "µL/min"}, {"measurement": "rmax,3A4 (maximal rate of CYP3A4 hydroxylation to the labelled metabolite)", "setting": "CYP3A4; [7]", "value": 3345, "unit": "pmol/min/mL"}, {"measurement": "rmax,3A4 (maximal rate of CYP3A4 hydroxylation to the labelled metabolite)", "setting": "CYP3A4; [8]", "value": 1991, "unit": "pmol/min/mL"}]}
{"compound": "CC(C)c1c(C(=O)Nc2ccc(O)cc2)c(-c2ccccc2)c(-c2ccc(F)cc2)n1CC[C@@H](O)C[C@@H](O)CC(=O)O", "note": "[ASpOH, para-hydroxy-atorvastatin acid]", "values": [{"measurement": "κex (apparent rate constant of export)", "setting": "[1]; [4]", "value": 0.80, "unit": "µL/min"}, {"measurement": "κim (apparent rate constant of import)", "setting": "[1]; [4]", "value": 3.96, "unit": "µL/min"}, {"measurement": "κex (apparent rate constant of export)", "setting": "[1]; [5]", "value": 1.25, "unit": "µL/min"}, {"measurement": "κim (apparent rate constant of import)", "setting": "[1]; [5]", "value": 2.01, "unit": "µL/min"}, {"measurement": "κex (apparent rate constant of export)", "setting": "[1]; [6]", "value": 0.52, "unit": "µL/min"}, {"measurement": "κim (apparent rate constant of import)", "setting": "[1]; [6]", "value": 2.53, "unit": "µL/min"}, {"measurement": "rmax,3A4 (maximal rate of CYP3A4 hydroxylation to the labelled metabolite)", "setting": "CYP3A4; [7]", "value": 1108, "unit": "pmol/min/mL"}, {"measurement": "rmax,3A4 (maximal rate of CYP3A4 hydroxylation to the labelled metabolite)", "setting": "CYP3A4; [8]", "value": 660, "unit": "pmol/min/mL"}]}
{"compound": "hydroxy-atorvastatin lactones (para- and ortho-) [ASLOH]", "values": [{"measurement": "κPON (rate constant of PON mediated lactone hydrolysis)", "setting": "PON enzymes; Individual 1", "value": "280 10^-3 min^-1"}, {"measurement": "κPON (rate constant of PON mediated lactone hydrolysis)", "setting": "PON enzymes; Individual 2", "value": "545 10^-3 min^-1"}, {"measurement": "κPON (rate constant of PON mediated lactone hydrolysis)", "setting": "PON enzymes; Individual 3", "value": "82.9 10^-3 min^-1"}]}
